Several values for one entry are separate records, joined by “and”; a condition that tells them apart may be missing. Identical values can stand only once. Inconclusive results and toxic doses are left out. No stated cut-off is given here; in the data, active means T/C of 150% or more; inactive means T/C below 125%. Square brackets hold non-standard residues; d marks the D form. Peptide text beside a SMILES is read from it. * marks the point of attachment. ξ: configuration not given here. Cbz = O=C(OCc1ccccc1)*; ξV = CC(C)C(N)C(=O)O; OBn = c1ccc(CO*)cc1
System: L1210 leukemia ip in BDF1 mice, survival T/C
Assay: NCI In Vivo Anticancer Drug Screen. Data for tumor model L1210 Leukemia (intraperitoneal) in B6D2F1 (BDF1) mice
Conditions: endpoint: mean survival time, higher = longer survival
Procedure, shortened: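 Mice bearing the transplanted tumor received compound or vehicle. Survival of the treated group was divided by that of the vehicle-treated control group to give the ratio.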

[1] = dose: 50.0 mg/kg/injection, schedule: Q01DX009 (ip), vehicle: Klucel (hydroxypropylcellulose) (HPC)
[2] = dose: 100.0 mg/kg/injection, schedule: Q01DX001 (ip), vehicle: carboxymethylcellulose (CMC)
[3] = dose: 100.0 mg/kg/injection, schedule: Q01DX009 (ip), vehicle: Klucel (hydroxypropylcellulose) (HPC)
[4] = dose: 100.0 mg/kg/injection, schedule: Q04DX003 (ip), vehicle: saline
[5] = dose: 200.0 mg/kg/injection, schedule: Q01DX001 (ip), vehicle: carboxymethylcellulose (CMC)
[6] = dose: 200.0 mg/kg/injection, schedule: Q01DX009 (ip), vehicle: Klucel (hydroxypropylcellulose) (HPC)
[7] = dose: 200.0 mg/kg/injection, schedule: Q04DX003 (ip), vehicle: saline
[8] = dose: 400.0 mg/kg/injection, schedule: Q01DX001 (ip), vehicle: carboxymethylcellulose (CMC)
[9] = dose: 50.0 mg/kg/injection, schedule: Q01DX009 (ip), vehicle: saline with Tween-80

Measured: T/C

Nc1ncnc2c1ncn2C1OC(CO)C(O)C1O (stereo not drawn)
inactive: dose: 6.25 mg/kg/injection, schedule: Q01DX009 (ip), vehicle: Klucel (hydroxypropylcellulose) (HPC) 115 % of control | dose: 7.8 mg/kg/injection, schedule: Q#A X012 (ip), vehicle: methylcellulose (MC) 102 % of control and 109 % of control | dose: 12.5 mg/kg/injection, schedule: Q01DX009 (ip), vehicle: Klucel (hydroxypropylcellulose) (HPC) 112 % of control | dose: 12.5 mg/kg/injection, schedule: Q04DX002 (ip), vehicle: Klucel (hydroxypropylcellulose) (HPC) 100 % of control | dose: 13.0 mg/kg/injection, schedule: Q#A X012 (ip), vehicle: methylcellulose (MC) 103 % of control and 109 % of control | dose: 22.0 mg/kg/injection, schedule: Q#A X012 (ip), vehicle: methylcellulose (MC) 102 % of control and 110 % of control | dose: 25.0 mg/kg/injection, schedule: Q01DX001 (ip), vehicle: saline 103 % of control | dose: 25.0 mg/kg/injection, schedule: Q01DX009 (ip), vehicle: Klucel (hydroxypropylcellulose) (HPC) 100 % of control and 108 % of control | dose: 25.0 mg/kg/injection, schedule: Q04DX002 (ip), vehicle: Klucel (hydroxypropylcellulose) (HPC) 107 % of control | dose: 25.0 mg/kg/injection, schedule: Q04DX003 (ip), vehicle: saline 105 % of control | dose: 36.0 mg/kg/injection, schedule: Q#A X012 (ip), vehicle: methylcellulose (MC) 106 % of control and 108 % of control | dose: 50.0 mg/kg/injection, schedule: Q01DX001 (ip), vehicle: saline 100 % of control | [1] 101 % of control and 107 % of control | dose: 50.0 mg/kg/injection, schedule: Q04DX002 (ip), vehicle: Klucel (hydroxypropylcellulose) (HPC) 97 % of control | dose: 50.0 mg/kg/injection, schedule: Q04DX003 (ip), vehicle: saline 116 % of control | dose: 60.0 mg/kg/injection, schedule: Q#A X012 (ip), vehicle: methylcellulose (MC) 106 % of control | [2] 100 % of control | dose: 100.0 mg/kg/injection, schedule: Q01DX001 (ip), vehicle: saline 100 % of control and 110 % of control | dose: 100.0 mg/kg/injection, schedule: Q01DX005 (ip), vehicle: saline 106 % of control and 95 % of control and 92 % of control | [3] 103 % of control | dose: 100.0 mg/kg/injection, schedule: Q01DX009 (ip), vehicle: saline 94 % of control | [4] 104 % of control and 112 % of control | dose: 118.0 mg/kg/injection, schedule: Q01DX005 (ip), vehicle: water 112 % of control | dose: 118.0 mg/kg/injection, schedule: Q01DX009 (ip), vehicle: water 112 % of control | dose: 150.0 mg/kg/injection, schedule: Q01DX009 (ip), vehicle: saline 105 % of control | dose: 177.0 mg/kg/injection, schedule: Q01DX005 (ip), vehicle: water 114 % of control | dose: 177.0 mg/kg/injection, schedule: Q01DX009 (ip), vehicle: saline with Tween-80 120 % of control | dose: 177.0 mg/kg/injection, schedule: Q01DX009 (ip), vehicle: water 111 % of control | [5] 100 % of control and 107 % of control | dose: 200.0 mg/kg/injection, schedule: Q01DX005 (ip), vehicle: saline 95 % of control and 101 % of control and 87 % of control | [6] 97 % of control | dose: 200.0 mg/kg/injection, schedule: Q01DX009 (ip), vehicle: carboxymethylcellulose (CMC) 114 % of control | dose: 200.0 mg/kg/injection, schedule: Q01DX009 (ip), vehicle: saline 102 % of control | [7] 94 % of control | dose: 266.0 mg/kg/injection, schedule: Q01DX005 (ip), vehicle: water 115 % of control | dose: 266.0 mg/kg/injection, schedule: Q01DX009 (ip), vehicle: saline with Tween-80 124 % of control | dose: 266.0 mg/kg/injection, schedule: Q01DX009 (ip), vehicle: water 112 % of control | dose: 300.0 mg/kg/injection, schedule: Q01DX009 (ip), vehicle: saline 102 % of control | [8] 106 % of control and 109 % of control | dose: 400.0 mg/kg/injection, schedule: Q01DX005 (ip), vehicle: water 112 % of control | dose: 400.0 mg/kg/injection, schedule: Q01DX009 (ip), vehicle: Klucel (hydroxypropylcellulose) (HPC) 116 % of control | dose: 400.0 mg/kg/injection, schedule: Q01DX009 (ip), vehicle: saline 107 % of control | dose: 400.0 mg/kg/injection, schedule: Q01DX009 (ip), vehicle: water 117 % of control | dose: 400.0 mg/kg/injection, schedule: Q04DX003 (ip), vehicle: saline 88 % of control | dose: 500.0 mg/kg/injection, schedule: Q03HX024 (ip), vehicle: saline with Tween-80 124 % of control | dose: 600.0 mg/kg/injection, schedule: Q01DX005 (ip), vehicle: water 110 % of control | dose: 600.0 mg/kg/injection, schedule: Q01DX009 (ip), vehicle: saline 109 % of control | dose: 600.0 mg/kg/injection, schedule: Q01DX009 (ip), vehicle: water 119 % of control | dose: 600.0 mg/kg/injection, schedule: Q03HX024 (ip), vehicle: saline with Tween-80 113 % of control | dose: 800.0 mg/kg/injection, schedule: Q01DX001 (ip), vehicle: carboxymethylcellulose (CMC) 107 % of control | dose: 800.0 mg/kg/injection, schedule: Q01DX009 (ip), vehicle: Klucel (hydroxypropylcellulose) (HPC) 103 % of control | dose: 800.0 mg/kg/injection, schedule: Q01DX009 (ip), vehicle: carboxymethylcellulose (CMC) 122 % of control | dose: 900.0 mg/kg/injection, schedule: Q01DX005 (ip), vehicle: water 115 % of control | dose: 900.0 mg/kg/injection, schedule: Q01DX009 (ip), vehicle: water 122 % of control | dose: 1000.0 mg/kg/injection, schedule: Q01DX009 (ip), vehicle: carboxymethylcellulose (CMC) 112 % of control | dose: 1200.0 mg/kg/injection, schedule: Q01DX009 (ip), vehicle: carboxymethylcellulose (CMC) 118 % of control | dose: 1600.0 mg/kg/injection, schedule: Q01DX001 (ip), vehicle: carboxymethylcellulose (CMC) 112 % of control

CC(C)C(NC(=O)CNC(=O)CNC(=O)OCc1ccccc1)C(=O)OCc1ccccc1 (stereo not drawn) (Cbz-Gly-Gly-[ξV]-OBn)
inactive: dose: 100.0 mg/kg/injection, schedule: Q04DX003 (ip), vehicle: Klucel (hydroxypropylcellulose) (HPC) 95 % of control | dose: 200.0 mg/kg/injection, schedule: Q04DX003 (ip), vehicle: Klucel (hydroxypropylcellulose) (HPC) 96 % of control | dose: 400.0 mg/kg/injection, schedule: Q04DX003 (ip), vehicle: Klucel (hydroxypropylcellulose) (HPC) 96 % of control

CCC(C)C(CN)(CCCN1CCCCC1)c1cccc2ccccc12 (stereo not drawn)
inactive: [4] 97 % of control | [7] 95 % of control

COC(C/C=C\C=C\CC/C=C/CC(C)/C=C/C(=C\C(=O)O)CC(=O)O)/C(C)=C\C=C(/C)C(=O)O (stereo not drawn)
inactive: dose: 0.5 mg/kg/injection, schedule: Q01DX001 (ip), vehicle: saline 101 % of control | dose: 1.0 mg/kg/injection, schedule: Q01DX001 (ip), vehicle: saline 102 % of control | dose: 2.0 mg/kg/injection, schedule: Q01DX001 (ip), vehicle: saline 102 % of control | dose: 4.0 mg/kg/injection, schedule: Q01DX001 (ip), vehicle: saline 104 % of control | dose: 8.0 mg/kg/injection, schedule: Q01DX001 (ip), vehicle: saline 101 % of control

COC(=O)C(CSC(c1ccc(N(C)C)cc1)c1ccc(N(C)C)cc1)NC(=O)OCc1ccccc1 (stereo not drawn)
inactive: dose: 75.0 mg/kg/injection, schedule: Q01DX001 (ip), vehicle: carboxymethylcellulose (CMC) 97 % of control | dose: 300.0 mg/kg/injection, schedule: Q01DX001 (ip), vehicle: carboxymethylcellulose (CMC) 94 % of control

CC(=O)C(C(=N)C#N)C(=O)Nc1ccccc1 (stereo not drawn)
inactive: dose: 100.0 mg/kg/injection, schedule: Q04DX003 (ip), vehicle: saline with Tween-80 101 % of control | dose: 200.0 mg/kg/injection, schedule: Q04DX003 (ip), vehicle: saline with Tween-80 104 % of control | dose: 400.0 mg/kg/injection, schedule: Q04DX003 (ip), vehicle: saline with Tween-80 101 % of control

c1ccc(-c2ccc(C3=NC(c4ccccc4)CC3)[nH]2)cc1 (stereo not drawn)
inactive: [1] 90 % of control | [3] 90 % of control | [6] 86 % of control

Cc1ccc(NC(=O)Nc2ccccc2Cl)c(C)c1
inactive: [2] 93 % of control | [5] 101 % of control | [8] 98 % of control

O=C1CCCCc2c1ccc(O)c2[N+](=O)[O-]
inactive: [9] 88 % of control

Clc1nc(Cl)c(Cl)c(C(Cl)(Cl)Cl)n1
inactive: dose: 25.0 mg/kg/injection, schedule: Q01DX009 (ip), vehicle: saline with Tween-80 101 % of control | [9] 92 % of control | dose: 100.0 mg/kg/injection, schedule: Q01DX009 (ip), vehicle: saline with Tween-80 87 % of control | dose: 200.0 mg/kg/injection, schedule: Q01DX009 (ip), vehicle: saline with Tween-80 86 % of control

Reference: PubChem BioAssay AID248 (DTP/NCI, 2004)
